Results from the NIST ThermoML archive (doi:10.1016/j.jct.2017.11.017).
Numbers after ± are expanded uncertainties.

Test: activity coefficient (dimensionless); of the first substance listed, at infinite dilution; xn = mol fraction of the nth substance listed
Details: 101.33 kPa, Liquid, Chromatography, x1 = 0

Row | Structure (SMILES) | activity coefficient (318.15 K) | activity coefficient (328.15 K) | activity coefficient (338.15 K) | activity coefficient (348.15 K) | activity coefficient (358.15 K) | activity coefficient (368.15 K) | activity coefficient (298.15 K) | activity coefficient (308.15 K)
1 | COC(C)=O [methyl ethanoate] + C[N+]1(CCCO)CCOCC1.N#C[N-]C#N | 4.31 ± 0.29 | 4.41 ± 0.3 | 4.54 ± 0.31 | 4.64 ± 0.32 | 4.77 ± 0.33 | 4.89 ± 0.33 | – | –
2 | CCC(=O)CC [pentan-3-one] + C[N+]1(CCCO)CCOCC1.N#C[N-]C#N | 8.09 ± 0.55 | 8.2 ± 0.56 | 8.38 ± 0.57 | 8.52 ± 0.58 | 8.61 ± 0.59 | 8.75 ± 0.6 | – | –
3 | C1CCCCCC1 [cycloheptane] + C[n+]1ccn(CCCO)c1.N#CN=C=[N-] | 128 ± 9 | 119 ± 8 | 111 ± 8 | 104 ± 7 | 97.8 ± 6.7 | – | 152 ± 10 | 139 ± 10
4 | C1=CCCCC1 [cyclohexene] + C[N+]1(CCCO)CCOCC1.N#C[N-]C#N | 79.1 ± 5.4 | 65.3 ± 4.5 | – | – | – | – | 121 ± 8 | 97 ± 6.7
5 | C#CCCCCCC [1-octyne] + C[N+]1(CCCO)CCOCC1.N#C[N-]C#N | 145 ± 10 | 138 ± 9 | 133 ± 9 | 128 ± 9 | 122 ± 8 | 118 ± 8 | – | 151 ± 10
6 | CC(C)=O [acetone] + C[N+]1(CCCO)CCOCC1.N#C[N-]C#N | 2.24 ± 0.15 | 2.3 ± 0.16 | 2.37 ± 0.16 | 2.45 ± 0.17 | 2.51 ± 0.17 | 2.59 ± 0.18 | – | –
7 | Cc1ccccc1 [toluene] + C[N+]1(CCCO)CCOCC1.N#C[N-]C#N | 13 ± 0.9 | 13.1 ± 0.9 | 13.3 ± 0.9 | 13.4 ± 0.9 | 13.6 ± 0.9 | 13.7 ± 0.9 | – | –
8 | CC(C)O [propan-2-ol] + C[n+]1ccn(CCCO)c1.N#CN=C=[N-] | 1.92 ± 0.13 | 1.92 ± 0.13 | 1.92 ± 0.13 | 1.91 ± 0.13 | 1.91 ± 0.13 | 1.92 ± 0.13 | – | –
9 | CC(C)CO [2-methyl-1-propanol] + C[N+]1(CCCO)CCOCC1.N#C[N-]C#N | 4.72 ± 0.32 | 4.54 ± 0.31 | 4.38 ± 0.3 | 4.25 ± 0.29 | 4.12 ± 0.28 | 4 ± 0.27 | – | –
10 | CC(C)(C)O [2-methylpropan-2-ol] + C[n+]1ccn(CCCO)c1.N#CN=C=[N-] | 2.58 ± 0.18 | 2.63 ± 0.18 | 2.68 ± 0.18 | 2.71 ± 0.18 | 2.74 ± 0.19 | 2.79 ± 0.19 | – | –
11 | c1ccccc1 [benzene] + C[n+]1ccn(CCCO)c1.N#CN=C=[N-] | 4.41 ± 0.3 | 4.56 ± 0.31 | 4.74 ± 0.32 | 4.92 ± 0.34 | 5.08 ± 0.35 | 5.22 ± 0.36 | – | –
12 | CCC(=O)OC [methyl propanoate] + C[N+]1(CCCO)CCOCC1.N#C[N-]C#N | 8.18 ± 0.56 | 8.35 ± 0.57 | 8.51 ± 0.58 | 8.7 ± 0.59 | 8.81 ± 0.6 | 9.01 ± 0.61 | – | –
13 | CC(C)OC(C)C [diisopropyl ether] + C[n+]1ccn(CCCO)c1.N#CN=C=[N-] | 96 ± 6.6 | 92.7 ± 6.4 | 90.6 ± 6.2 | 88 ± 6 | 86.5 ± 5.9 | 84.3 ± 5.8 | – | –
14 | C#CCCCC [1-hexyne] + C[n+]1ccn(CCCO)c1.N#CN=C=[N-] | 19.6 ± 1.3 | 20 ± 1.4 | 20.3 ± 1.4 | 20.6 ± 1.4 | 21.4 ± 1.5 | – | 18.8 ± 1.3 | 19.3 ± 1.3
15 | c1ccncc1 [pyridine] + C[N+]1(CCCO)CCOCC1.N#C[N-]C#N | 1.71 ± 0.11 | 1.8 ± 0.12 | 1.89 ± 0.13 | 1.97 ± 0.13 | 2.06 ± 0.14 | 2.15 ± 0.15 | – | –
16 | CC(C)CC(C)(C)C [2,2,4-trimethylpentane] + C[n+]1ccn(CCCO)c1.N#CN=C=[N-] | 579 ± 40 | 509 ± 35 | – | – | – | – | 767 ± 53 | 662 ± 46
17 | CCCCCCCCC [nonane] + C[n+]1ccn(CCCO)c1.N#CN=C=[N-] | 1070 ± 74 | 955 ± 66 | 863 ± 59 | 780 ± 54 | 722 ± 50 | – | 1360 ± 94 | 1200 ± 83
18 | CC1CCCCC1 [methylcyclohexane] + C[N+]1(CCCO)CCOCC1.N#C[N-]C#N | 508 ± 35 | 404 ± 28 | 321 ± 22 | – | – | – | 865 ± 60 | 654 ± 45
19 | c1ccncc1 [pyridine] + C[n+]1ccn(CCCO)c1.N#CN=C=[N-] | 1.33 ± 0.09 | 1.41 ± 0.09 | 1.5 ± 0.1 | 1.58 ± 0.1 | 1.67 ± 0.11 | 1.75 ± 0.12 | – | –
20 | C1COCCO1 [1,4-dioxane] + C[n+]1ccn(CCCO)c1.N#CN=C=[N-] | 1.73 ± 0.12 | 1.85 ± 0.12 | 1.98 ± 0.13 | 2.09 ± 0.14 | 2.23 ± 0.15 | 2.34 ± 0.16 | – | –
21 | CCCCCCCCCC [decane] + C[n+]1ccn(CCCO)c1.N#CN=C=[N-] | 1530 ± 110 | 1380 ± 95 | 1270 ± 88 | 1170 ± 81 | 1070 ± 74 | – | 1870 ± 130 | 1680 ± 120
22 | C=CCCCCC [1-heptene] + C[n+]1ccn(CCCO)c1.N#CN=C=[N-] | 176 ± 12 | 166 ± 11 | 156 ± 11 | 146 ± 10 | 139 ± 10 | – | 208 ± 14 | 194 ± 13
23 | CCC[N+](=O)[O-] [1-nitropropane] + C[n+]1ccn(CCCO)c1.N#CN=C=[N-] | 2.69 ± 0.18 | 2.79 ± 0.19 | 2.89 ± 0.2 | 2.97 ± 0.2 | 3.08 ± 0.21 | 3.17 ± 0.22 | – | –
24 | COC(C)(C)C [2-methoxy-2-methylpropane] + C[n+]1ccn(CCCO)c1.N#CN=C=[N-] | 22.8 ± 1.6 | 23.2 ± 1.6 | 23.5 ± 1.6 | 24 ± 1.6 | 24.3 ± 1.7 | 24.7 ± 1.7 | – | –
25 | CCCCCCCCC [nonane] + C[N+]1(CCCO)CCOCC1.N#C[N-]C#N | 1870 ± 130 | 1570 ± 110 | 1340 ± 92 | 1160 ± 80 | 994 ± 69 | 867 ± 60 | – | 2260 ± 160
26 | CCCO [propan-1-ol] + C[n+]1ccn(CCCO)c1.N#CN=C=[N-] | 1.77 ± 0.12 | 1.76 ± 0.12 | 1.76 ± 0.12 | 1.76 ± 0.12 | 1.77 ± 0.12 | 1.78 ± 0.12 | – | –
27 | C=Cc1ccccc1 [styrene] + C[n+]1ccn(CCCO)c1.N#CN=C=[N-] | 5.97 ± 0.41 | 6.25 ± 0.43 | 6.57 ± 0.45 | 6.82 ± 0.46 | 7.14 ± 0.49 | 7.39 ± 0.5 | – | –
28 | C#CCCCCC [1-heptyne] + C[n+]1ccn(CCCO)c1.N#CN=C=[N-] | 34.6 ± 2.4 | 34.6 ± 2.4 | 35.1 ± 2.4 | 35.3 ± 2.4 | 35.3 ± 2.4 | – | 34 ± 2.3 | 34.3 ± 2.3
